{
  "source": "patent US20140243401A1",
  "about": "“METHODS OF SCREENING COMPOUNDS THAT ARE CYTOTOXIC TO TUMOR CELLS AND METHODS OF TREATING TUMOR CELLS USING SUCH COMPOUND” (The Johns Hopkins University, priority 2010, published 2014)",
  "tested_on": "AMP-activated protein kinase (AMPK)",
  "assay": "AMPK activation (pAMPK Western blot) in MCF 7 cells at varying glucose and oxygen",
  "format": "cell-based, human",
  "settings": "MCF 7, 1 mM or 5 mM glucose, 1% or 21% oxygen, FIGS. 12, 13",
  "experimental": "FIG. 12 A illustrates the effects of varying oxygen and glucose concentrations on AMPK activation over time in the presence of C31 in MCF 7 cells.\nDetermination of AMP-activated protein kinase status was carried out using the procedure described above. Cells were grown in 6-well plates at 5×10^4 per well and incubated overnight. Cells were cultured in 1 mM or 5 mM glucose at either 1% or 21% (ambient) oxygen levels. These conditions were employed for treatment with vehicle, C31, or Riv7d. Following drug treatment, the cells were harvested in Laemmli buffer and boiled for 5 minutes. Proteins were separated on a 4-15% SDS-PAGE gradient gel and transferred to a nitrocellulose membrane. Antibodies to pAMPK and AMPK were obtained from Cell Signaling.",
  "data": [
    {"compound": "CCCCCCCCC1(C)SC(=O)C=C1OCC(=O)Nc1ccc(Cl)cc1", "note": "(stereo not shown) [Compound C31]", "values": [
      {"measurement": "AMPK phosphorylation (quantitative Western blots)", "value": "increased phosphorylation of AMPK"}
    ]}
  ]
}
